The values that follow come from PubChem BioAssay (NCI).

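Five concentrations, 48 hours, 96-well plates. The concentration for 50% growth inhibition is given as GI50. TGI: total growth inhibition.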

As usually defined, the GI50 is the concentration at which growth is held to half of that of the control. As usually defined, the TGI is the concentration at which net growth stops.

The experiment relates to MDA-MB-468 breast. Put plainly: DTP human tumour cell line panel, 48 h.

`CN(C)c1ccc2c(c1)OC(N)=C(C#N)C2c1ccc2c(c1)CCCN2C` (configuration not stated): the GI50 is 1.62 µM and the TGI was 42.5 µM. For `Nc1ccn([C@@H]2S[C@H](CO)[C@@H](O)[C@@H]2F)c(=O)n1`, in that order: 3.25 µM and over 88.6 µM. Taken in the same sequence, the figures for `CCc1ccc(C2=NN(c3ccc(S(C)(=O)=O)cc3)C(=O)CC2)cc1` were 4.43 µM and 43.7 µM. For the compound `Cc1n(Cc2ccc3ccccc3n2)cc[n+]1Cc1ccc2ccccc2c1`, the GI50 is 0.27 µM and the TGI worked out at 1.58 µM. Taken in the same sequence, the figures for `CCN(CC)C(=O)CCCCCn1c2ccccc2c2c3c(c4c5ccccc5[nH]c4c21)C(=O)N(O)C3=O` were 5.79 µM and over 100 µM.

As for `CS(=O)(=O)c1ccc2c(c1)c1c(n2C(=O)c2ccc(Cl)cc2)CCCC1`, the GI50 is 2.09 µM and the TGI is over 100 µM. Taken in the same sequence, the figures for `O=C(/C=C/c1cccc(Oc2ccc(Cl)cc2)c1)c1ccccc1` were 101 µM and 338 µM. Turning to `CCN(CC)CCS(=O)(=O)CCNc1ccnc2cc(Cl)ccc12`, the GI50 is 0.711 µM and the TGI was found to be 1.91 µM. As to `CC/C(=C(/c1ccc(/C=C/C(=O)O)cc1)c1ccc2[nH]ncc2c1)c1ccc(F)cc1Cl`, the GI50 is 15.1 µM and the concentration for total growth inhibition (TGI) is 42.8 µM.

Consider `Oc1c(I)cc(Cl)c2cccnc12`, for which the GI50 was 2.05 µM and the total growth inhibition concentration (TGI) turned out to be 5.13 µM. Take `O=C1C2C(C(=O)N1CC[Se][Se]CCN1C(=O)C3C(C1=O)[C@H]1C=C[C@@H]3C1)[C@H]1C=C[C@@H]2C1` (some centres not stated): the GI50 was 0.324 µM and the TGI came out at 1.32 µM. Taken in the same sequence, the figures for `C=CC[PH+](c1ccccc1)c1ccccc1.C=CC[PH+](c1ccccc1)c1ccccc1.[Pt+2].[S-]c1ncccn1.[S-]c1ncccn1` were 3.06 µM and 13.9 µM. For `OC(c1cc(-c2ccc(Cl)cc2)nc2c(Cl)cccc12)C1CCCCN1` (configuration not stated), in that order: 1.74 µM and 3.26 µM.

On to `CN(C)CCS(=O)(=O)Nc1cc(-c2ccc3ncnc(Nc4ccc(F)c(Cl)c4)c3c2)cnc1Cl`, for which the GI50 was 0.133 µM and the TGI worked out at 0.449 µM.

For `Cc1ccccc1CNc1c2ccccc2nc2ccccc12`, the GI50 was 1.88 µM and the TGI was found to be 4.89 µM.

For the compound `CCN(CC)Cc1cc(Nc2cc(C(F)(F)F)c(C#N)c3nc4ccccc4n23)ccc1O`, the GI50 is 0.228 µM and the TGI turned out to be 3.69 µM. Turning to `Cc1ccc(NC2=CC(=O)C(=O)c3ccccc32)c(C)c1`, the GI50 was 2.56 µM and the TGI is 8.61 µM. Taken in the same sequence, the figures for `CCN(CC)CCCNc1c2ccc(Cl)cc2nc2ccc(OC)cc12` were 0.0711 µM and 2.71 µM. Taken in the same sequence, the figures for `Nc1n[nH]c2ccc([C@@H]3Nc4c(F)cc5[nH]ncc5c4[C@H]4C5CCC(C5)[C@@H]34)cc12` (some centres not stated) were 0.116 µM and 0.621 µM. Taken in the same sequence, the figures for `Cc1ccc(C(=O)N2C/C(=C/c3ccccc3)C(=O)/C(=C/c3ccccc3)C2)cc1` were 2.23 µM and 10.7 µM. Turning to `CCOc1cc2c(cc1O)CC[C@@H]1[C@@H]2CC[C@]2(C)[C@@H](O)CC[C@@H]12`, the GI50 is 4.96 µM and the TGI came to 31.8 µM. Taken in the same sequence, the figures for `CC(C)C/C(=N\NC(=O)c1ccncc1)c1cc(Cl)ccc1O` were 0.288 µM and 1.97 µM.

For `CCOC(=O)c1cc2cc(OCc3ccccc3)ccc2[nH]1`, the GI50 was over 100 µM and the TGI was over 100 µM.

On to `CC1(C)N=C(N)N=C(N)N1c1ccc(OCCCCNC(=O)Nc2cccc(S(=O)(=O)F)c2)c(Cl)c1`, for which the GI50 was 3.47 µM and the concentration for total growth inhibition (TGI) was over 100 µM. Taken in the same sequence, the figures for `CN(c1ccc(NC(=O)NCCN2CCOCC2)cc1)c1ccnc(Nc2ccc(CS(C)(=O)=O)cc2)n1` were 8.21 µM and over 25 µM. For `Cc1cc(-c2ccco2)cc(C)c1/C=C/c1cncc(-c2nn[nH]n2)c1`, in that order: over 25 µM and over 25 µM. For `N=C(N)c1ccc(OCCCCCOc2ccc(C(=N)N)cc2)cc1`, in that order: 0.466 µM and 5.83 µM. Regarding `N#Cc1cccc(C2C3=C(COC3=O)N(CCO)c3cc4c(cc32)CCC4)c1` (configuration not stated), the 50% growth inhibitory concentration (GI50) is 0.115 µM. As to `O=S(=O)(NCCCNc1nccc(-c2c(-c3cccc(F)c3)nc3occn23)n1)c1cccc2ccccc12`, the GI50 was 4.86 µM and the TGI was over 100 µM.

Take `COc1ncc2cc1NS(=O)(=O)c1cccc(c1)C(=O)NCC1=CC=C(S1)c1ncnc3c1SC2=C3C`: the GI50 is 0.072 µM and the TGI was found to be 0.234 µM. For `COc1cc(OC)c(/C=C/C(=O)c2c(N)cc(OC)cc2OC)c(OC)c1`, in that order: 0.322 µM and 7.26 µM. For `Cc1ccc(-c2nc(C(Cl)Cl)nc3cc(C)nn23)cc1`, in that order: 0.259 µM and 0.957 µM. For `CCc1c(C#N)c(SC(C(N)=O)c2ccccc2)nc(N2CCC(N)CC2)c1C#N` (configuration not stated), in that order: 3.53 µM and 16.4 µM. For `Oc1ccc(-c2[nH]c3ccccc3c2-c2nc3ccccc3o2)cc1`, the GI50 was 1.36 µM and the TGI was determined as 5.98 µM. For `Cc1ccc(O)cc1Nc1ccnc2cc(-c3ccccn3)ccc12`, in that order: 0.736 µM and 3.57 µM.

Regarding `C=C(C)[C@@H]1CC[C@]2(C(=O)n3ccnc3)CC[C@]3(C)[C@H](CC[C@@H]4[C@@]5(C)CCCNC(C)(C)[C@@H]5CC[C@]43C)[C@@H]12`, the GI50 was 1.9 µM and the TGI was 3.53 µM.

As to `CCN(CCNc1ccc(C)c2sc3cc(Cl)ccc3c(=O)c12)CC(C)(C)O`, the GI50 is 3.49 µM and the TGI was found to be 10.4 µM. Regarding `CCN(CC)C(=S)SSCCO`, the GI50 was 15 µM and the TGI is 28.9 µM. Take `Nc1c(C(=O)Nc2ccccn2)sc2nc3c(cc12)CCCCCC3`: the GI50 was 0.435 µM and the TGI came out at 7.13 µM. In the case of `O=C(Nc1nc2c(s1)CCc1c-2c(Br)n(Cc2ccccc2)c1Br)c1ccccc1`, the GI50 is 8.28 µM and the TGI is over 100 µM.

For the compound `Cc1nn2c(-c3nc4cc(Cl)c(Cl)cc4[nH]3)c(-c3ccc(F)cc3)nc2s1`, the GI50 is over 29.1 µM and the TGI is over 100 µM.

As to `COC(=O)C1=Nc2ccc(F)cc2/C1=C/c1sc(=S)[nH]c1O`, the GI50 is 0.354 µM and the TGI stood at 2.95 µM.

`COc1cc(/C=N/Nc2ccnc3cc(Cl)ccc23)cc(OC)c1O`: the GI50 is 1.65 µM and the concentration for total growth inhibition (TGI) came out at 3.28 µM. For `O=C(Nc1cccc(-n2cc(-c3ccncc3)c(-c3ccc(O)c(Cl)c3)n2)c1)Nc1ccc(Cl)c(Cl)c1`, in that order: 1.96 µM and 6.65 µM.
